The structures appear in SMILES notation. pIC50: −log10 of the molar value. Read-outs that look alike come from different tables or passages of the source. Some results are limits rather than exact numbers.

The target of one assay is BTK^WT (Homo sapiens (Human), UniProt Q06187). The experiment in a line: BTK^WT binding affinity (TR-FRET, LanthaScreen). Here is the method:
BTK^WT binding affinity of each compound tested was determined using a time-resolved fluorescence resonance energy transfer (TR-FRET) methodology. 2.5 nM Recombinant BTK^WT kinase, varying concentrations of inhibitor, 2 nM LanthaScreen™ Eu anti-His Antibody and 15 nM Kinase Tracer 236 was incubated in 1× LanthaScreen™ Kinase Buffer A for 5 h. Recombinant BTK kinase and all LanthaScreen™ components were purchased from Invitrogen. Measurements were performed in a reaction volume of 30 μL using half-area 96-well assay plates. The TR-FRET signal was read on a plate reader with an excitation wavelength of 340 nm and detection wavelengths of 615 and 665 nm. Binding affinity was determined for each compound by measuring TR-FRET signal at various concentrations of compound and plotting the relative fluorescence units against the inhibitor concentration to estimate the IC50 from log [Inhibitor] vs response using the Variable Slope model in Graphpad prism from Graphpad software (SanDiego, Calif.).

The target of a further assay is BTK^C481S (Homo sapiens (Human), UniProt Q06187, C481S). Description: BTK^C481S binding affinity (TR-FRET, LanthaScreen). Conditions: 5 h incubation. The protocol: BTK^C481S binding affinity of each compound tested was determined using a time-resolved fluorescence resonance energy transfer (TR-FRET) methodology. 5 nM Recombinant […] kinase, varying concentrations of inhibitor, 2 nM LanthaScreen™ Eu anti-His Antibody and 30 nM Kinase Tracer 236 was incubated in 1× LanthaScreen™ Kinase Buffer A for 5 h. Recombinant BTK^C481S kinase was purchased from SignalChem and all LanthaScreen™ components were purchased from Invitrogen. Measurements were performed in a reaction volume of 30 μL using half-area 96-well assay plates. The TR-FRET signal was read on a plate reader with an excitation wavelength of 340 nm and detection wavelengths of 615 and 665 nm. Binding affinity was determined for each compound by measuring TR-FRET signal at various concentrations of compound and plotting the relative fluorescence units against the inhibitor concentration to estimate the IC50 from log [Inhibitor] vs response using the Variable Slope model in Graphpad prism from Graphpad software (SanDiego, Calif.).
Sequence of BTK^C481S (Q06187 whole entry C481S): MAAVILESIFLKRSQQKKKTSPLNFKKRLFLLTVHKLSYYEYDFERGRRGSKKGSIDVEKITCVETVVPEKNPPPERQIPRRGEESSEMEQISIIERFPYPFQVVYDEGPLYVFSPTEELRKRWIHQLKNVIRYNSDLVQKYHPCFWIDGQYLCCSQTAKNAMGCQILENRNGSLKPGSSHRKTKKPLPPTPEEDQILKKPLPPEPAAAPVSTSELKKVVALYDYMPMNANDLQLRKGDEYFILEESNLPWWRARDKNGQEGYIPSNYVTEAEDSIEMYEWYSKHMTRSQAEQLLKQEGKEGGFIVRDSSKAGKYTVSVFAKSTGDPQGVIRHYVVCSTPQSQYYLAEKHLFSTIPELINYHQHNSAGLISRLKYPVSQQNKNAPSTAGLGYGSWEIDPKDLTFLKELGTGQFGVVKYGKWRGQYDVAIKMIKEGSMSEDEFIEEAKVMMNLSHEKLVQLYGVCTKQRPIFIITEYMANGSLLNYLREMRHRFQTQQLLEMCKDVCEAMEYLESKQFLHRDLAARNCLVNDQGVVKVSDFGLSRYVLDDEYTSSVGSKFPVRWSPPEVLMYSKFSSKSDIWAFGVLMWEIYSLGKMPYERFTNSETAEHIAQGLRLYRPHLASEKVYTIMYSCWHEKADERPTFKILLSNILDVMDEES

The next assay concerns the target EGFR (Homo sapiens (Human), UniProt P00533). The experiment in a line: EGFR binding affinity (TR-FRET, LanthaScreen). Conditions: 5 h incubation. Here is the method:
EGFR binding affinity was determined using a time-resolved fluorescence resonance energy transfer (TR-FRET) methodology. 2.5 nM Recombinant EGFR, varying concentrations of inhibitor, 2 nM LanthaScreen™ Eu anti-GST Antibody and 3 nM Kinase Tracer 199 was incubated in 1× LanthaScreen™ Kinase Buffer A for 5 h. Recombinant EGFR and all LanthaScreen™ components were purchased from Invitrogen. Measurements were performed in a reaction volume of 30 μL using half-area 96-well assay plates. The TR-FRET signal was read on a plate reader with an excitation wavelength of 340 nm and detection wavelengths of 615 and 665 nm. Binding affinity was determined for each compound by measuring TR-FRET signal at various concentrations of compound and plotting the relative fluorescence units against the inhibitor concentration to estimate the IC50 from log [Inhibitor] vs response using the Variable Slope model in Graphpad prism from Graphpad software (SanDiego, Calif.).

The subject of assay [1] is OCI-Ly10 human DLBCL cells. Description: OCI-Ly10 anti-proliferative activity (Resazurin, 72 h). The class given is cell-based. Conditions: Homo sapiens, OCI-Ly10, 72 h, read-out: Proliferation OCI-Ly10-IC50. The protocol:
Compounds were assayed for effects on the growth of OCI-Ly10 human DLBCL cells that are dependent on NFκB signalling. OCI-Ly10 cells were grown in suspension in T225 flasks, centrifuged and re-suspended in 2.5% FBS containing media. Cells were then plated at 7.5×10^3 cells per well in 96-well plates in varying concentrations of compound and incubated for 72 h at 37° C. An additional plate of cells to be used as the Day 0 read was seeded without compound addition, Resazurin was added to each well, incubated for 5 h and the fluorescence measured at 590 nm. After 72 h of compound treatment, Resazurin was added to each well of the compound treated plates, incubated for 5 h and the fluorescence measured at 590 nm. The IC50 was then calculated by subtracting the average Day 0 value from each well value from the treated plates, each treatment was then calculated as a percentage of the DMSO control and the percentages plotted against the inhibitor concentration to estimate the IC50 from log [Inhibitor] vs response using the Variable Slope model in Graphpad prism from Graphpad software (SanDiego, Calif.).

[2] abbreviates: TR-FRET binding, 5 h incubation, read-out: BTK^WT IC50.
Setting [3] is: Table 6, numeric values, read-out: BTK Binding IC50.

Sequence of EGFR (P00533 25-1210): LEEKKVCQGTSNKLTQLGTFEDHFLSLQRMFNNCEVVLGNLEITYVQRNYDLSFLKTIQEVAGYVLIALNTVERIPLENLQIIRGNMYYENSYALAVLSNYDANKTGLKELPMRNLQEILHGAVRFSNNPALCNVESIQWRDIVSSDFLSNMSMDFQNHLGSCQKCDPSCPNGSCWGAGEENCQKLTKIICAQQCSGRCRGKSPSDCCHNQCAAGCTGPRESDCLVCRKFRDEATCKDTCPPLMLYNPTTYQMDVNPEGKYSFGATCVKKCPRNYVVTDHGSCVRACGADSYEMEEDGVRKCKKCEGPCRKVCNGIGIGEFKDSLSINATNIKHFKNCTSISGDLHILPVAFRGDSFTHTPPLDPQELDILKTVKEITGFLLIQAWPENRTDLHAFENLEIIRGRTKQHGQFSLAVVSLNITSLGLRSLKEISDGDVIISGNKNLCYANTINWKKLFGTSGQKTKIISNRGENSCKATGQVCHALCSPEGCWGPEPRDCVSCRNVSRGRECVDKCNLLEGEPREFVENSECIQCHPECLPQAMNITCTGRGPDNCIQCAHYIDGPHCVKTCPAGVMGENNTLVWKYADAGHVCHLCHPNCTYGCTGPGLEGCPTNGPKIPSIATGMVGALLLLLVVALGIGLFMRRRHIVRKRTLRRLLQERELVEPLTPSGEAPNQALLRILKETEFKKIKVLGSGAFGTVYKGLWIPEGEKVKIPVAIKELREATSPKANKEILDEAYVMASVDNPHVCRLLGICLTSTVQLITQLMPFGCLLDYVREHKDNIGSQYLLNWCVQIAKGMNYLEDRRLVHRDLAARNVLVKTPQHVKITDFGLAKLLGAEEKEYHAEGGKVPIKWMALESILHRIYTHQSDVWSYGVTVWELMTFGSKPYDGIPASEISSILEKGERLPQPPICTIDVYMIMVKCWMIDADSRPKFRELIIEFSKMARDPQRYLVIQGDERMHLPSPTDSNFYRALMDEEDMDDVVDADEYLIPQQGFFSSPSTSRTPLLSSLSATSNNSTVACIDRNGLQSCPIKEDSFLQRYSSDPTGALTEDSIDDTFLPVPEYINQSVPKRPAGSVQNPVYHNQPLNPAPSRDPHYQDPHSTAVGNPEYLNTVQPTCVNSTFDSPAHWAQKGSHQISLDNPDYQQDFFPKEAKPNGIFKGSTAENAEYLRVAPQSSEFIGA
Sequence of BTK^WT (Q06187 whole entry): as the sequence (Q06187 whole entry C481S) above, with S481C counted along it

`COc1ccccc1C(=O)NCc1ccc(-c2nn([C@@H]3CCc4ccccc43)c3ncnc(N)c23)cc1` [Example 56, N-[(4-{4-amino-1-[(1R)-2,3-dihydro-1H-inden-1-yl]-1H-pyrazolo[3,4-d]pyrimidin-3-yl}phenyl)methyl]-2-methoxybenzamide]: the pIC50 on BTK^WT (setting [2]) is at least 8.00; at BTK^WT (setting [3]) it was 8.92; on BTK^C481S, at least 8.00.

Consider `COc1ccccc1C(=O)NCc1ccc(-c2nn(C3CCC4(CC3)OCCO4)c3ncnc(N)c23)cc1` [Example 19, N-[[4-[4-amino-1-(1,4-dioxaspiro[4.5]decan-8-yl)pyrazolo[3,4-d]pyrimidin-3-yl]phenyl]methyl]-2-methoxy-benzamide], for which the pIC50 on BTK^WT (setting [2]) and on BTK^C481S was at least 8.00 each time.

In the case of `COc1ccccc1C(=O)NCc1ccc(-c2nn([C@H]3CC[C@@H](C(=O)N(C)C)CC3)c3ncnc(N)c23)cc1` (single isomer, unassigned; isomer 2) [33-isomer 2], the pIC50 at BTK^WT (setting [2]) and on BTK^C481S was at least 8.00 throughout.

As for `COc1ccccc1C(=O)NC1(c2ccc(-c3nn(C4CCCC4)c4ncnc(N)c34)cc2)CC1` [Example 67, N-[1-[4-(4-amino-1-cyclopentyl-pyrazolo[3,4-d]pyrimidin-3-yl)phenyl]cyclopropyl]-2-methoxy-benzamide], the pIC50 on EGFR, on BTK^WT (setting [2]) and on BTK^C481S was 5.00 to 6.00 throughout.

For the molecule `Nc1ncnc2c1c(-c1ccc(CNC(=O)c3nc4ccccc4s3)cc1)nn2C1CCCC1` [Example 82, N-[[4-(4-amino-1-cyclopentyl-pyrazolo[3,4-d]pyrimidin-3-yl)phenyl]methyl]-1,3-benzothiazole-2-carboxamide], the pIC50 on EGFR and on BTK^WT (setting [2]) was under 5.00 in each case.

For the molecule `Nc1ncnc2c1c(-c1ccc(CNC(=O)c3cccc4ncoc34)cc1)nn2C1CCCC1` [Example 87, N-[[4-(4-amino-1-cyclopentyl-pyrazolo[3,4-d]pyrimidin-3-yl)phenyl]methyl]-1,3-benzoxazole-7-carboxamide], the pIC50 at BTK^WT (setting [2]) is 5.00 to 6.00.

`Nc1ncnc2c1c(-c1ccc(CNC(=O)c3cc4ccccc4[nH]3)cc1)nn2C1CCCC1` [Example 88, N-[[4-(4-amino-1-cyclopentyl-pyrazolo[3,4-d]pyrimidin-3-yl)phenyl]methyl]-1H-indole-2-carboxamide]: at EGFR, the pIC50 was 5.00 to 6.00.

Take `CC(C)(C)n1nc(-c2ccc(CNC(=O)c3cc4ccccc4o3)cc2)c2c(N)ncnc21` [Example 81, N-[[4-(4-amino-1-tert-butyl-pyrazolo[3,4-d]pyrimidin-3-yl)phenyl]methyl]benzofuran-2-carboxamide]: the pIC50 (in assay [1]; at BTK^WT (setting [2])) was 5.00 to 6.00 each time.

Molecule `COc1c(C)cccc1C(=O)NCc1ccc(-c2nn(C3CCCC3)c3ncnc(N)c23)cc1` [Example 22, N-[[4-(4-amino-1-cyclopentyl-pyrazolo[3,4-d]pyrimidin-3-yl)phenyl]methyl]-2-methoxy-3-methyl-benzamide] showed a pIC50 at EGFR of 5.00 to 6.00.

Consider `Nc1ncnc2c1c(-c1ccc(CNC(=O)c3cc4ccccc4s3)cc1)nn2C1CCCC1` [Example 84, N-[[4-(4-amino-1-cyclopentyl-pyrazolo[3,4-d]pyrimidin-3-yl)phenyl]methyl]benzothiophene-2-carboxamide], for which the pIC50 at BTK^WT (setting [2]) was 5.00 to 6.00.

As for `Nc1ncnc2c1c(-c1ccc(CNC(=O)c3cc4ccccc4o3)cc1)nn2C1CCCC1` [Example 83, N-[[4-(4-amino-1-cyclopentyl-pyrazolo[3,4-d]pyrimidin-3-yl)phenyl]methyl]benzofuran-2-carboxamide], the pIC50 on BTK^WT (setting [2]) is under 5.00.

With `COc1ccccc1C(=O)NCc1ccc(-c2nn(C3CCC(C(=O)O)CC3)c3ncnc(N)c23)cc1` (stereo not drawn) [Example 30, 4-[4-amino-3-[4-[[(2-methoxybenzoyl)amino]methyl]phenyl]pyrazolo[3,4-d]pyrimidin-1-yl]cyclohexanecarboxylic acid], the pIC50 on EGFR was 6.00 to 7.00; on BTK^WT (setting [2]), at least 8.00; at BTK^WT (setting [3]), 8.85; on BTK^C481S, at least 8.00.

`Nc1ncnc2c1c(-c1ccc(CNC(=O)c3ccccc3OC(F)(F)F)cc1)nn2C1CCCC1` [Example 6, N-[[4-(4-Amino-1-cyclopentyl-pyrazolo[3,4-d]pyrimidin-3-yl)phenyl]methyl]-2-(trifluoromethoxy)benzamide]: the pIC50 on EGFR and on BTK^WT (setting [2]) was 6.00 to 7.00 in each case.

For `COc1cc2ccccc2cc1C(=O)NCc1ccc(-c2nn(C3CCCC3)c3ncnc(N)c23)cc1` [Example 71, N-[[4-(4-amino-1-cyclopentyl-pyrazolo[3,4-d]pyrimidin-3-yl)phenyl]methyl]-3-methoxy-naphthalene-2-carboxamide], the pIC50 on BTK^WT (setting [2]) and on BTK^C481S was 6.00 to 7.00 each time.

With `N#Cc1cccc(C(=O)NCc2ccc(-c3nn(C4CCCC4)c4ncnc(N)c34)cc2)c1` [Example 20, N-[[4-(4-amino-1-cyclopentyl-pyrazolo[3,4-d]pyrimidin-3-yl)phenyl]methyl]-3-cyano-benzamide], on EGFR, the pIC50 is 5.00 to 6.00.

As to `COc1ccccc1C(=O)NCc1c(F)cc(-c2nn(C3CCCC3)c3ncnc(N)c23)cc1F` [Example 73, N-[[4-(4-amino-1-cyclopentyl-pyrazolo[3,4-d]pyrimidin-3-yl)-2,6-difluoro-phenyl]methyl]-2-methoxy-benzamide], the figures for the pIC50 on EGFR, at BTK^WT (setting [2]) and at BTK^C481S were 5.00 to 6.00, 6.00 to 7.00 and 7.00 to 8.00, respectively.

For the molecule `Nc1ncnc2c1c(-c1ccc(CNC(=O)c3ccc4ccccc4n3)cc1)nn2C1CCCC1` [Example 85, N-[[4-(4-amino-1-cyclopentyl-pyrazolo[3,4-d]pyrimidin-3-yl)phenyl]methyl]quinoline-2-carboxamide], at BTK^WT (setting [2]), the pIC50 is 5.00 to 6.00.

As to `Nc1ncnc2c1c(-c1ccc(CNC(=O)C3CNc4ccccc4O3)cc1)nn2C1CCCC1` (stereo not drawn) [Example 86, N-[[4-(4-Amino-1-cyclopentyl-pyrazolo[3,4-d]pyrimidin-3-yl)phenyl]methyl]-3,4-dihydro-2H-1,4-benzoxazine-2-carboxamide], the pIC50 at BTK^WT (setting [2]) and on BTK^C481S was under 5.00 each time.

Turning to `COc1ccccc1C(=O)NCc1ccc(-c2nn(C(C)C)c3ncnc(N)c23)cc1` [Example 78, N-[[4-(4-amino-1-isopropyl-pyrazolo[3,4-d]pyrimidin-3-yl)phenyl]methyl]-2-methoxy-benzamide], the pIC50 on EGFR is 5.00 to 6.00; on BTK^WT (setting [2]) it was at least 8.00; on BTK^C481S, at least 8.00.

For `COc1ccccc1C(=O)NCc1ccc(-c2nn(C3CCCC3)c3ncnc(N)c23)c(C)c1` [Example 79, N-[[4-(4-amino-1-cyclopentyl-pyrazolo[3,4-d]pyrimidin-3-yl)-3-methyl-phenyl]methyl]-2-methoxy-benzamide], the pIC50 on EGFR was 5.00 to 6.00; on BTK^WT (setting [2]) it was at least 8.00; on BTK^C481S, at least 8.00.

For the molecule `Nc1ncnc2c1c(-c1ccc(CNC(=O)c3ccc4ccccc4c3)cc1)nn2C1CCCC1` [Example 72, N-[[4-(4-amino-1-cyclopentyl-pyrazolo[3,4-d]pyrimidin-3-yl)phenyl]methyl]naphthalene-2-carboxamide], the pIC50 on BTK^WT (setting [2]) was 6.00 to 7.00.

In turn, `COc1ccccc1C(=O)N(C)Cc1ccc(-c2nn(C3CCCC3)c3ncnc(N)c23)cc1` [Example 17, N-[[4-(4-Amino-1-cyclopentyl-pyrazolo[3,4-d]pyrimidin-3-yl)phenyl]methyl]-2-methoxy-N-methyl-benzamide] had a pIC50 on EGFR of 5.00 to 6.00.

Values taken from US10399989B2, “Pyrazolopyrimidine derivatives as BTK inhibitors for the treatment of cancer” (Loxo Oncology, Inc., priority 2016, dated 2019).
